These compounds were tested against L-lactate dehydrogenase A chain (Homo sapiens, UniProt P00338) (assay: Inhibition of human recombinant carboxy-terminal His-tagged LDHA by UV endpoint assay).

IC50 [µM] | SMILES
> 100 | N#Cc1ccccc1SC1=C(O)CC(c2c(Cl)cccc2Cl)CC1=O (centres undefined)
> 100 | N#Cc1ccccc1SC1=C(O)CC(c2c(Cl)cccc2Br)CC1=O (centres undefined)
> 100 | O=C1CC(c2ccccc2Cl)CC(O)=C1Sc1ccccc1Cl (centres undefined)
> 100 | O=C1CC(c2cccc(Cl)c2)CC(O)=C1Sc1ccccc1Cl (centres undefined)
> 100 | O=C1CC(c2ccc(Cl)cc2)CC(O)=C1Sc1ccccc1Cl (centres undefined)
> 100 | COc1ccc(C2CC(=O)C(Sc3ccccc3Cl)=C(O)C2)cc1 (centres undefined)
> 100 | O=C1CC(c2c(F)cccc2Cl)CC(O)=C1Sc1ccccc1Cl (centres undefined)
> 100 | O=C1CC(c2c(Cl)cccc2Br)CC(O)=C1Sc1ccccc1Cl (centres undefined)
> 100 | O=C1CC(c2c(Cl)cccc2C(F)(F)F)CC(O)=C1Sc1ccccc1Cl (centres undefined)
> 100 | O=C1CC(c2c(F)cccc2F)CC(O)=C1Sc1ccccc1Cl (centres undefined)
5.6 | Cc1cc(C)c(SC2=C(O)CC(c3ccccc3)CC2=O)nc1C#N (centres undefined)
0.87 | O=C1CC(c2ccccc2)CC(O)=C1Sc1ncc[nH]1 (centres undefined)
7.4 | CSc1nnc(SC2=C(O)CC(c3ccccc3)CC2=O)s1 (centres undefined)
2.1 | Cc1ccc2nc(SC3=C(O)CC(c4ccccc4)CC3=O)[nH]c2c1 (centres undefined)
> 100 | O=C1CC(c2c(Cl)ccc(Br)c2Cl)CC(O)=C1Sc1ccccc1Cl (centres undefined)
> 100 | O=C1CC(c2c(Br)cccc2Br)CC(O)=C1Sc1ccccc1Cl (centres undefined)
> 100 | Cc1cccc(C)c1C1CC(=O)C(Sc2ccccc2Cl)=C(O)C1 (centres undefined)
> 100 | O=C1CC(c2c(C(F)(F)F)cccc2C(F)(F)F)CC(O)=C1Sc1ccccc1Cl (centres undefined)
> 100 | N#Cc1ccccc1SC1=C(O)CC(c2ccccc2Cl)CC1=O (centres undefined)
> 100 | N#Cc1ccccc1SC1=C(O)CC(c2cccc(Cl)c2)CC1=O (centres undefined)
> 100 | N#Cc1ccccc1SC1=C(O)CC(c2ccc(Cl)cc2)CC1=O (centres undefined)
> 100 | N#Cc1ccccc1SC1=C(O)CC(c2c(Cl)cccc2C(F)(F)F)CC1=O (centres undefined)
> 100 | Cc1cccc(C)c1C1CC(=O)C(Sc2ccccc2C#N)=C(O)C1 (centres undefined)
> 100 | N#Cc1ccccc1SC1=C(O)CC(c2c(Br)cccc2Br)CC1=O (centres undefined)
